# Assay results from patent publication US8242274B2, “Triazolopyridine kinase inhibitors useful for the treatment of degenerative and inflammatory diseases” (Galapagos NV, priority 2008, dated 2012).
# Assays:
# [1] = target: T1, Recombinant human JAK1 catalytic domain (Homo sapiens, UniProt P23458); experiment: JAK1 inhibition assay; assay type: biochemical; details: semi-quantitative score
# T1 construct: Recombinant human JAK1 catalytic domain (amino acids 850-1154; catalog number 08-144); purchased Carna Biosciences 08-144
# T1 sequence (P23458 850-1154): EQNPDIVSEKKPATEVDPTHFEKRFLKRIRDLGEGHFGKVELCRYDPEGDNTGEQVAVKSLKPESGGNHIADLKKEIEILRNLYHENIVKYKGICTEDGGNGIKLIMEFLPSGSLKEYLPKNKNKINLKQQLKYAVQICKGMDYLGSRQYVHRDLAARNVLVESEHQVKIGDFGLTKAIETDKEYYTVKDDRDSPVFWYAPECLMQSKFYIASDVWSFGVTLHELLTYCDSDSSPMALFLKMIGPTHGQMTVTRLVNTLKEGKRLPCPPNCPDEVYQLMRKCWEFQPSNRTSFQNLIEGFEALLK
# Procedure: Recombinant human JAK1 catalytic domain (amino acids 850-1154; catalog number 08-144) was purchased from Carna Biosciences. 10 ng of JAK1 was incubated with 12.5 μg polyGT substrate (Sigma catalog number P0275) in kinase reaction buffer (15 mM Tris-HCl pH 7.5, 1 mM DTT, 0.01% Tween-20, 10 mM MgCl2, 2 μM non-radioactive ATP, 0.25 μCi 33P-gamma-ATP (GE Healthcare, catalog number AH9968) final concentrations) with or without 5 μL containing test compound or vehicle (DMSO, 1% final concentration), in a total volume of 25 μL, in a polypropylene 96-well plate (Greiner, V-bottom). After 45 min at 30° C., reactions were stopped by adding of 25 μL/well of 150 mM phosphoric acid. All of the terminated kinase reaction was transferred to prewashed (75 mM phosphoric acid) 96 well filter plates (Perkin Elmer catalog number 6005177) using a cell harvester (Perkin Elmer). Plates were washed 6 times with 300 μL per well of a 75 mM phosphoric acid solution and the bottom of the plates was sealed. 40 μL/well of Microscint-20 was added, the top of the plates was sealed and readout was performed using the Topcount (Perkin Elmer). Kinase activity was calculated by subtracting counts per minute (cpm) obtained in the presence of a positive control inhibitor (10 μM staurosporine) from cpm obtained in the presence of vehicle. The ability of a test compound to inhibit this activity was determined as: Percentage inhibition=((cpm determined for sample with test compound present−cpm determined for sample with positive control inhibitor)divided by(cpm determined in the presence of vehicle−cpm determined for sample with positive control inhibitor))*100%.
# (§1) Dose dilution series were prepared for the compounds enabling the testing of dose-response effects in the JAK1 assay and the calculation of the IC50 for each compound. Each compound was routinely tested at concentration of 20 μM followed by a 1/3 serial dilution, 8 points (20 μM-6.67 μM-2.22 μM-740 nM-247 nM-82 nM-27 nM-9 nM) in a final concentration of 1% DMSO.
# [2] = target: T2, Recombinant human JAK2 catalytic domain (Homo sapiens, UniProt O60674); experiment: JAK2 inhibition assay; assay type: biochemical; details: semi-quantitative score
# T2 construct: Recombinant human JAK2 catalytic domain (amino acids 808-1132; catalog number PV4210); purchased Invitrogen PV4210
# T2 sequence (O60674 808-1132): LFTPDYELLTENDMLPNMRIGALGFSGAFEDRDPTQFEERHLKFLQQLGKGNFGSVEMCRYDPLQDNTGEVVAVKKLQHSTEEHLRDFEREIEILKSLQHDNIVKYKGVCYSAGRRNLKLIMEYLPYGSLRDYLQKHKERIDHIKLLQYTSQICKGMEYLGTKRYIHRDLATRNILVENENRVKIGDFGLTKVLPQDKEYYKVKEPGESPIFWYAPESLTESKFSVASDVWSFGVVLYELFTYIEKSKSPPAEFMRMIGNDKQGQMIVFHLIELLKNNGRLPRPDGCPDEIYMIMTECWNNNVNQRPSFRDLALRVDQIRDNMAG
# Procedure: Recombinant human JAK2 catalytic domain (amino acids 808-1132; catalog number PV4210) was purchased from Invitrogen. 0.025 mU of JAK2 was incubated with 2.5 μg polyGT substrate (Sigma catalog number P0275) in kinase reaction buffer (5 mM MOPS pH 7.5, 9 mM MgAc, 0.3 mM EDTA, 0.06% Brij and 0.6 mM DTT, 1 μM non-radioactive ATP, 0.25 μCi 33P-gamma-ATP (GE Healthcare, catalog number AH9968) final concentrations) with or without 5 μL containing test compound or vehicle (DMSO, 1% final concentration), in a total volume of 25 μL, in a polypropylene 96-well plate (Greiner, V-bottom). After 90 min at 30° C., reactions were stopped by adding of 25 μL/well of 150 mM phosphoric acid. All of the terminated kinase reaction was transferred to prewashed (75 mM phosphoric acid) 96 well filter plates (Perkin Elmer catalog number 6005177) using a cell harvester (Perkin Elmer). Plates were washed 6 times with 300 μL per well of a 75 mM phosphoric acid solution and the bottom of the plates was sealed. 40 μL/well of Microscint-20 was added, the top of the plates was sealed and readout was performed using the Topcount (Perkin Elmer). Kinase activity was calculated by subtracting counts per minute (cpm) obtained in the presence of a positive control inhibitor (10 μM staurosporine) from cpm obtained in the presence of vehicle. The ability of a test compound to inhibit this activity was determined as: Percentage inhibition=((cpm determined for sample with test compound present−cpm determined for sample with positive control inhibitor) divided by (cpm determined in the presence of vehicle−cpm determined for sample with positive control inhibitor))*100%.
# as §1, with “JAK2” for “JAK1”
# [3] = Microsomal stability, human; assay type: in vitro ADME; details: human liver microsomes, 3 μM compound, 37° C.
# Procedure: (§2) A 10 mM stock solution of compound in DMSO was diluted 1000 fold in a 182 mM phosphate buffer pH 7.4 in a 96 deep well plate (Greiner, Cat no. 780285) and pre-incubated at 37° C.
# (§3) 40 μL of deionised water was added to a well of a polypropylene Matrix 2D barcode labelled storage tube (Thermo Scientific) and pre-incubated at 37° C.
# (§4) A Glucose-6-phosphate-dehydrogenase (G6PDH) working stock solution was prepared in 182 mM phosphate buffer pH7.4 and placed on ice before use. A co-factor containing MgCl2, glucose-6-phosphate and NADP+ was prepared in deionised water and placed on ice before use.
# (§5) A final working solution containing liver microsomes (Xenotech) of a species of interest (human, mouse, rat, dog), previously described G6PDH and co-factors was prepared and this mix was incubated for no longer than 20 minutes at room temperature.
# (§6) 30 μL of the pre-heated compound dilution was added to 40 μL of pre-heated water in the Matrix tubes and 30 μL of the microsomal mix was added. Final reaction concentrations were 3 μM compound, 1 mg microsomes, 0.4 U/mL GDPDH, 3.3 mM MgCl2, 3.3 mM glucose-6-phosphate and 1.3 mM NADP+.
# (§7) To measure percentage remaining of compound at time zero MeOH or ACN was added (1:1) to the well before adding the microsomal mix. The plates were sealed with Matrix Sepra Seals™ (Matrix, Cat. No. 4464) and shaken for a few seconds ensure complete mixing of all components.
# (§8) The samples which were not stopped are incubated at 37° C., 300 rpm and after 1 hour of incubation the reaction was stopped with MeOH or ACN (1:1).
# (§9) After stopping the reaction the samples were mixed and placed on ice for 30 min to precipitate the proteins. The plates were then centrifuged 30 min at 1200 rcf at 4° C. and the supernatant was transferred to a 96 v-bottom PP plate (Greiner, 651201) for analysis on LCMS.
# (§10) These plates were sealed with sealing mats (MA96RD-04S) of www.kinesis.co.uk and samples were measured at room temperature on LCMS (ZQ 1525 from Waters) under optimized conditions using Quanoptimize to determine the appropriate mass of the parent molecule.
# (§11) The samples were analyzed on LCMS with a flow rate of 1 mL/min. Solvent A was 15 mM ammonia and solvent B was methanol or acetonitrile, depending on the stop solution used. The samples were run under positive ion spray on an XBridge C18 […] (2.1×30 mm) column, from Waters.
# (§12) Peak area from the parent compound at time 0 was considered to be 100% remaining. The percentage remaining after 1 hour incubation was calculated from time 0 and was calculated as the percentage remaining. The solubility of the compound in the final test concentration in buffer is inspected by microscope and results are reported.
# (§13) The data on microsomal stability are expressed as a percentage of the total amount of compound remaining after 60 minutes.
# [4] = Microsomal stability, rat; assay type: in vitro ADME; details: rat liver microsomes, 3 μM compound, 37° C.
# Procedure: as §2, §3, §4, §5, §6, §7, §8, §9, §10, §11, §12, §13
# [5] = Caco2 permeability, bi-directional; assay type: in vitro ADME; details: human, Caco-2; 10 μM, 1 hour, pH 7.4
# Procedure: Bi-directional Caco-2 assays were performed as described below. Caco-2 cells were obtained from European Collection of Cell Cultures (ECACC, cat 86010202) and used after a 21 day cell culture in 24-well Transwell plates (Fisher TKT-545-020B).
# 2×10^5 cells/well were seeded in plating medium consisting of DMEM+GlutaMAXI+1% NEAA+10% FBS (FetalClone II)+1% Pen/Strep. The medium was changed every 2-3 days.
# Test and reference compounds (propranolol and rhodamine 123 or vinblastine, all purchased from Sigma) were prepared in Hanks' Balanced Salt Solution containing 25 mM HEPES (pH 7.4) and added to either the apical (125 μL) or basolateral (600 μL) chambers of the Transwell plate assembly at a concentration of 10 μM with a final DMSO concentration of 0.25%.
# 50 μM Lucifer Yellow (Sigma) was added to the donor buffer in all wells to assess integrity of the cell layers by monitoring Lucifer Yellow permeation. As Lucifer Yellow (LY) cannot freely permeate lipophilic barriers, a high degree of LY transport indicates poor integrity of the cell layer.
# After a 1 hour incubation at 37° C. while shaking at an orbital shaker at 150 rpm, 70 μL aliquots were taken from both apical (A) and basal (B) chambers and added to 100 μLl 50:50 acetonitrile:water solution containing analytical internal standard (0.5 μM carbamazepine) in a 96 well plate.
# Lucifer yellow was measured with a Spectramax Gemini XS (Ex 426 nm and Em 538 nm) in a clean 96 well plate containing 150 μL of liquid from basolateral and apical side.
# Concentrations of compound in the samples were measured by high performance liquid-chromatography/mass spectroscopy (LC-MS/MS).
# The Efflux ratios, as an indication of active efflux from the apical cell surface, were calculated using the ratio of PappB>A/PappA>B.
# TNF release = experiment: Septic shock model (LPS); assay type: in vivo, mice; details: 3 mg/kg
# Procedure: Injection of lipopolysaccharide (LPS) induces a rapid release of soluble tumour necrosis factor (TNF-alpha) into the periphery. This model is used to analyse prospective blockers of TNF release in vivo.
# Six BALB/cJ female mice (20 g) per group were treated at the intended dosing once, po. Thirty minutes later, LPS (15 μg/kg; E. Coli serotype 0111:B4) was injected ip. Ninety minutes later, mice were euthanized and blood was collected. Circulating TNF alpha levels were determined using commercially available ELISA kits. Dexamethasone (5 μg/kg) was used as a reference anti-inflammatory compound. Selected compounds are tested at one or multiple doses, e.g. 3 and/or 10 and/or 30 mg/kg, po.
# MMP13 = experiment: OSM/IL-1β signaling assay (SW1353 cells); assay type: cell-based; details: Homo sapiens, 25 ng/mL OSM and 1 ng/mL IL-1β, 48 hours
# Procedure: The cells were seeded in 96 well plates at 15,000 cells/well in a volume of 120 μL DMEM (Invitrogen) containing 10% (v/v) FBS and 1% penicillin/streptomycin (InVitrogen) incubated at 37° C. 5% CO2. Cells were preincubated with 15 μL compound in M199 medium with 2% DMSO 1 hr before triggering with 15 μL OSM and IL-1β to reach 25 ng/mL OSM and 1 ng/mL IL-1β, and MMP13 levels were measured in conditioned medium 48 hours after triggering. MMP13 activity was measured using an antibody capture activity assay. For this purpose, 384 well plates (NUNC, 460518, MaxiSorb black) were coated with 35 μL of a 1.5 μg/mL anti-human MMP13 antibody (R&D Systems, MAB511) solution for 24 hours at 4° C. After washing the wells 2 times with PBS+0.05% Tween, the remaining binding sites were blocked with 100 μL 5% non-fat dry milk (Santa Cruz, sc-2325, Blotto) in PBS for 24 hours at 4° C. […] Next the wells were washed twice with PBS+0.05% Tween followed by MMP13 activation by addition of 35 μL of a 1.5 mM 4-Aminophenylmercuric acetate (APMA) (Sigma, A9563) solution and incubation at 37° C. for 1 hour. […] After incubation for 24 hours at 37° C. fluorescence of the converted substrate was measured in a Perkin Elmer Wallac EnVision 2102 Multilabel Reader (wavelength excitation: 320 nm, wavelength emission: 405 nm).
Structure (SMILES),IC50 [1] [nM],IC50 [2] [nM],"Microsomal stability Human (%), compound remaining after 60 minutes [3] [%]","Microsomal stability Rat (%), compound remaining after 60 minutes [4] [%]","Papp A→B at 1 h, 10 μM [5] [×10⁻⁶ cm/s]",EC50 (MMP13) [nM],activity in the septic shock model (TNF release)
"O=C(Nc1nc2cccc(-c3ccc(OCc4ccc(Cl)nc4)cc3)n2n1)C1CC1 [Compound 198, Cyclopropanecarboxylic acid {5-[4-(6-chloro-pyridin-3-ylmethoxy)-phenyl]-[1,2,4]triazolo[1,5-a]pyridin-2-yl}-amide]",0.1 to 100,1 to 100,65.8,72.45,,,
"CC(=O)Nc1nc2cccc(-c3ccc(OCc4ccccc4)cc3)n2n1 [Compound 163, N-(5-(4-(benzyloxy)phenyl)-[1,2,4]triazolo[1,5-a]pyridin-2-yl)acetamide]",0.1 to 100,,53.64,39.78,13.4,,
"NC(=O)c1ccc(COc2ccc(-c3cccc4nc(NC(=O)C5CC5)nn34)cc2)cn1 [Compound 192, 5-{4-[2-(Cyclopropanecarbonyl-amino)-[1,2,4]triazolo[1,5-a]pyridin-5-yl]-phenoxymethyl}-pyridine-2-carboxylic acid amide]",0.1 to 100,,127.2,77.62,12.5,> 1000,
"O=C(Nc1nc2cccc(-c3ccc(OCc4ccc(N5CCCC5)nc4)cc3)n2n1)C1CC1 [Compound 174, N-(5-(4-((6-(pyrrolidin-1-yl)pyridin-3-yl)methoxy)phenyl)-[1,2,4]triazolo[1,5-a]pyridin-2-yl)cyclopropanecarboxamide]",> 501,,,,,,

# Further lines, with some results ahead:
IC50 [1] [nM],IC50 [2] [nM],"Microsomal stability Human (%), compound remaining after 60 minutes [3] [%]","Microsomal stability Rat (%), compound remaining after 60 minutes [4] [%]","Papp A→B at 1 h, 10 μM [5] [×10⁻⁶ cm/s]",EC50 (MMP13) [nM],Structure (SMILES),activity in the septic shock model (TNF release)
0.1 to 100,,2.13,25.64,,,COC(=O)c1ccc(COc2ccc(-c3cccc4nc(NC(=O)C5CC5)nn34)cc2)nc1 [Compound 190],
0.1 to 100,,19.33,19.23,,,"O=C(Nc1nc2cccc(-c3ccc(NCc4cccnc4)cc3)n2n1)C1CC1 [Compound 182, N-(5-(4-(pyridin-3-ylmethylamino)phenyl)-[1,2,4]triazolo[1,5-a]pyridin-2-yl)cyclopropanecarboxamide]",
0.1 to 100,,43,14,25.8,,"O=C(Nc1nc2cccc(-c3ccc(OCc4ccccc4)c(F)c3)n2n1)C1CC1 [Compound 15, N-(5-(4-(benzyloxy)-3-fluorophenyl)-[1,2,4]triazolo[1,5-a]pyridin-2-yl)cyclopropanecarboxamide]",
0.1 to 100,1 to 100,46.6,59.41,,,"Cc1ccc(COc2ccc(-c3cccc4nc(NC(=O)C5CC5)nn34)cc2)cn1 [Compound 197, Cyclopropanecarboxylic acid {5-[4-(6-methyl-pyridin-3-ylmethoxy)-phenyl]-[1,2,4]triazolo[1,5-a]pyridin-2-yl}-amide]",active
,> 501,,,,,"O=C(Nc1nc2cccc(-c3cccc(OCc4ccccc4)c3)n2n1)C1CC1 [Compound 14, N-(5-(3-(benzyloxy)phenyl)-[1,2,4]triazolo[1,5-a]pyridin-2-yl)cyclopropanecarboxamide]",
